# Where “and” joins values, the source holds several entries; their conditions need not be identical. Identical values can stand only once.
# Tests used:
# [1] = Lung retention of nintedanib in an IPF animal model; type: in vivo; details: fibrotic mice, once-daily oral dosing of 60 mg/kg
# Experimental: First, pulmonary fibrosis was induced by IT instillation of 2.5 mg/kg bleomycin to each mouse. […] Q2D×2 signifies one dose administered every other day for a total of two doses. Blood and lung tissue samples were collected at predetermined time points (Table 7).
# [2] = tested on: bleomycin-induced pulmonary fibrosis in mice; test: Efficacy of liposomal and oral nintedanib in an IPF animal model, histopathological evaluation of lung tissue; type: in vivo; details: 60 mg/kg, oral, QD ×10, Day 21, listed as free nintedanib
# Experimental: Q2D×4 signifies one dose administered every other day on day 7, 9, 15, and 17. QD×10 signifies mice received once daily dosing on day 7, 8, 9, 10, 11, 14, 15, 16, 17, and 18. Blood and lung tissue samples were collected on day 21.
# Efficacy was determined by histopathological evaluation of mouse lung tissue.
# Degree of lesions stained with HE was graded from one to five depending on severity: […]
# IPF = details: cited from earlier work
# C57BL/6 mice = test: Observations of mice (mortality) during lung retention study; type: in vivo; details: healthy mice, IT 50 μL, 3.74 mg/mL nintedanib
# Experimental: (§1) A lung retention study of liposomal TKI in healthy mice was conducted to compare the residence times of free form versus liposomal TKI formulations in the mouse lung.
# [3] = Lung retention study of liposomal TKI in healthy mice; type: in vivo; details: IT, 3.74 mg/mL, after two hours
# Experimental: as §1
compound,measurement,setting,value
COC(=O)c1ccc2c(c1)NC(=O)/C2=C(\Nc1ccc(N(C)C(=O)CN2CCN(C)CC2)cc1)c1ccccc1 [nintedanib],Drug retention in mouse lung,[1],no nintedanib was detected in lung tissue after just a few hours
same,Mean score (fibrosis),[2]; per animal (No. 4 to 6),~2 and 2.0 and 1.4
same,"Interstitial and subpleural, multifocal fibrosis scores",[2]; single scores per animal (No. 4 to 6),2 (2=slight (1-25%)) (12×) and 1 (1=minimal (<1%)) (3×)
same,Undesired side effects of oral treatment,IPF; current therapeutic amount,"diarrhea (most frequent adverse event), nausea, stomach pain, liver problems, vomiting, decreased appetite, headache, weight loss, and high blood pressure"
same,Reduction of lung function decline (increased forced vital capacity) compared to placebo,"IPF; oral, 150 mg twice a day, clinical trials",approximately 50%
same,Observation of surviving mice,C57BL/6 mice,mice were very weak)
same,Mortality,C57BL/6 mice; deaths/mice,2/9 (the 7 surviving
same,Drug retained in the lung,[3],almost none of the drug was retained in the lung

# Reference: patent US12533313B2, “Inhalable liposomal sustained release composition for use in treating pulmonary diseases” (INSPIRMED CORP., priority 2018, dated 2026)
